# According to the kinase profiling compilation of Christmann-Franck et al. (2016):
# Tests used:
# Assay in all cases: radiometric filter-binding kinase assay, Kinase HotSpot
# Settings in all cases: compound 0.5 µM; ATP 10 µM
# PHKG2 (human) = PHKG2 (human) (UniProt P15735)
# AXL (human) = AXL (human) (UniProt P30530)
# TAOK3 (human) = TAOK3 (human) (UniProt Q9H2K8)
# NTRK2 (human) = NTRK2 (human) (UniProt Q16620)
# AKT3 (human) = AKT3 (human) (UniProt Q9Y243)
# CSNK1D (human) = CSNK1D (human) (UniProt P48730)
# LIMK1 (human) = LIMK1 (human) (UniProt P53667)
# NTRK3 (human) = NTRK3 (human) (UniProt Q16288)
# MARK2 (human) = MARK2 (human) (UniProt Q7KZI7)
# MAPK12 (human) = MAPK12 (human) (UniProt P53778)
# MARK3 (human) = MARK3 (human) (UniProt P27448)
# TAOK2 (human) = TAOK2 (human) (UniProt Q9UL54)
# HCK (human) = HCK (human) (UniProt P08631)
# GSK3B (human) = GSK3B (human) (UniProt P49841)
# NEK4 (human) = NEK4 (human) (UniProt P51957)
# JAK2 JH1 JH2 (human) = JAK2 JH1 JH2 (human) (UniProt O60674)
# CSNK1G1 (human) = CSNK1G1 (human) (UniProt Q9HCP0)
# MUSK (human) = MUSK (human) (UniProt O15146)
# PRKG2 (human) = PRKG2 (human) (UniProt Q13237)
# STK33 (human) = STK33 (human) (UniProt Q9BYT3)
# DYRK2 (human) = DYRK2 (human) (UniProt Q92630)
# MERTK (human) = MERTK (human) (UniProt Q12866)
# FYN (human) = FYN (human) (UniProt P06241)
# WNK3 (human) = WNK3 (human) (UniProt Q9BYP7)
# IRAK1 (human) = IRAK1 (human) (UniProt P51617)
# DAPK1 (human) = DAPK1 (human) (UniProt P53355)
# WEE1 (human) = WEE1 (human) (UniProt P30291)
# MAPKAPK3 (human) = MAPKAPK3 (human) (UniProt Q16644)
# PTK2B (human) = PTK2B (human) (UniProt Q14289)
# MAPK13 (human) = MAPK13 (human) (UniProt O15264)
# CAMK4 (human) = CAMK4 (human) (UniProt Q16566)
# RPS6KA4 KD2 (human) = RPS6KA4 KD2 (human) (UniProt O75676)
# ACVRL1 (human) = ACVRL1 (human) (UniProt P37023)
# DSTYK (human) = DSTYK (human) (UniProt Q6XUX3)
# CHUK (human) = CHUK (human) (UniProt O15111)
# DYRK1A (human) = DYRK1A (human) (UniProt Q13627)
# DDR2 (human) = DDR2 (human) (UniProt Q16832)
# OXSR1 (human) = OXSR1 (human) (UniProt O95747)
# CSNK2A2 (human) = CSNK2A2 (human) (UniProt P19784)
# TSSK1B (human) = TSSK1B (human) (UniProt Q9BXA7)
# GRK6 (human) = GRK6 (human) (UniProt P43250)
# CDK9 CCNK (human) = CDK9 CCNK (human) (UniProt O75909+P50750)
# Chain of FYN (human) (P06241 whole entry, looked up): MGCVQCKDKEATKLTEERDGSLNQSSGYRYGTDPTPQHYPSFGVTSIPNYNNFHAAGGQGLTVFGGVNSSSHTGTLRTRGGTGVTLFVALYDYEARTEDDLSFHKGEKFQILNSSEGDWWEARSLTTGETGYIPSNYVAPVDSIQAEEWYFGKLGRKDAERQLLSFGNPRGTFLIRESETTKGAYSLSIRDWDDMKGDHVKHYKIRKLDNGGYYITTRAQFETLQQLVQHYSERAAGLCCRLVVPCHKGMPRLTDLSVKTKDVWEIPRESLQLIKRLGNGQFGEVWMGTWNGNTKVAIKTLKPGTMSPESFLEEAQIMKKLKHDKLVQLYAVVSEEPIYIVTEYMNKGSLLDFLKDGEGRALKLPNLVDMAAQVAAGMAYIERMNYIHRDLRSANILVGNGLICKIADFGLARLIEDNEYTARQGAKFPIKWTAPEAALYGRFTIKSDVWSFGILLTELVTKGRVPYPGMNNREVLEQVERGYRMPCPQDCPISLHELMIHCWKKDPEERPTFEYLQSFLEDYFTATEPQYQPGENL
# Chain of DSTYK (human) (Q6XUX3 whole entry, looked up): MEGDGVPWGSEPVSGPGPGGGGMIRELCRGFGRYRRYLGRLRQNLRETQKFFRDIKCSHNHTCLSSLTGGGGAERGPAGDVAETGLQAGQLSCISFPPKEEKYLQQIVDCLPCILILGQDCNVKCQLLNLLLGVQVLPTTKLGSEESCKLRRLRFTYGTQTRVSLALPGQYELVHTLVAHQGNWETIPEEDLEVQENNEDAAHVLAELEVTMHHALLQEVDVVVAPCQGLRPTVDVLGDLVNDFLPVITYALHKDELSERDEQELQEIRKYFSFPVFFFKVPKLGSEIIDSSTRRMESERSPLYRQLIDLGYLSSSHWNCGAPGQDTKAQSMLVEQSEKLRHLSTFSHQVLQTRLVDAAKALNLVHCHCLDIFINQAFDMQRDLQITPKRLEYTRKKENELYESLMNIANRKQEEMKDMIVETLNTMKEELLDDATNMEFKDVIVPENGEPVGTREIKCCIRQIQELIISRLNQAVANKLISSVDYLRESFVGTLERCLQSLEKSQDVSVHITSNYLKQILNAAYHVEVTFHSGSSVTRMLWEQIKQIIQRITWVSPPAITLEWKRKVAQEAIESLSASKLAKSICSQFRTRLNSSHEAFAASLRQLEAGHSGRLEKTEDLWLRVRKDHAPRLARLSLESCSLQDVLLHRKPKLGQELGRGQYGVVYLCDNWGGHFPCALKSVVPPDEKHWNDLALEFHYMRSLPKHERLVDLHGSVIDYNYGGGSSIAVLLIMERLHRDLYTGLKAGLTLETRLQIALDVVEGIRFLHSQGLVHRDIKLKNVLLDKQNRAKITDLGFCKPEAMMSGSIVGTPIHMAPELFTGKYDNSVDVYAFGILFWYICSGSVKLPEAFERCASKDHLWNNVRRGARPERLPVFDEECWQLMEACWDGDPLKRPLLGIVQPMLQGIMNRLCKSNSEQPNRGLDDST
# Chain of AKT3 (human) (Q9Y243 whole entry, looked up): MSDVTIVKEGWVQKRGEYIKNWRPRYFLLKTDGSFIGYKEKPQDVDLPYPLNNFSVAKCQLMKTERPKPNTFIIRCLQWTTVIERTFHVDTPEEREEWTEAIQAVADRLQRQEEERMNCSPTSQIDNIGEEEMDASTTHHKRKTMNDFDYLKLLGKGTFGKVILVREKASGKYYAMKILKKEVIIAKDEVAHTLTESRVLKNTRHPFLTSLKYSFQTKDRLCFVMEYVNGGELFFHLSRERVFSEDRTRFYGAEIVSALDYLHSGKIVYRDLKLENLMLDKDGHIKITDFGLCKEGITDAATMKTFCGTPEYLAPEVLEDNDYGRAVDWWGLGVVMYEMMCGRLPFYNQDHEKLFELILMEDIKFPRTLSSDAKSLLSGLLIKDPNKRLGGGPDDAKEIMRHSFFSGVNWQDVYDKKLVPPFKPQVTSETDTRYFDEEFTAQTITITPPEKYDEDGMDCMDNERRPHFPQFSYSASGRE
# Chain of MAPK13 (human) (O15264 whole entry, looked up): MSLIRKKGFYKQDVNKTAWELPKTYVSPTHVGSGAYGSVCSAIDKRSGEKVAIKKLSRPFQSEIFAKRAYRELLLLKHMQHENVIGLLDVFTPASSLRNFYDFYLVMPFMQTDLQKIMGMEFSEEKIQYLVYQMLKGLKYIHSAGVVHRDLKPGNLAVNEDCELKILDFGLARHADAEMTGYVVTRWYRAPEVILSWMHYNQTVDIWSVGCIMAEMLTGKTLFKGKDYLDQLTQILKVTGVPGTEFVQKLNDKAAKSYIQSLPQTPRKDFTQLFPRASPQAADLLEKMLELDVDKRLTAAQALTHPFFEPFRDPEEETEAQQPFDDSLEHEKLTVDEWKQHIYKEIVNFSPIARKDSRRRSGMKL
# Chain of NEK4 (human) (P51957 whole entry, looked up): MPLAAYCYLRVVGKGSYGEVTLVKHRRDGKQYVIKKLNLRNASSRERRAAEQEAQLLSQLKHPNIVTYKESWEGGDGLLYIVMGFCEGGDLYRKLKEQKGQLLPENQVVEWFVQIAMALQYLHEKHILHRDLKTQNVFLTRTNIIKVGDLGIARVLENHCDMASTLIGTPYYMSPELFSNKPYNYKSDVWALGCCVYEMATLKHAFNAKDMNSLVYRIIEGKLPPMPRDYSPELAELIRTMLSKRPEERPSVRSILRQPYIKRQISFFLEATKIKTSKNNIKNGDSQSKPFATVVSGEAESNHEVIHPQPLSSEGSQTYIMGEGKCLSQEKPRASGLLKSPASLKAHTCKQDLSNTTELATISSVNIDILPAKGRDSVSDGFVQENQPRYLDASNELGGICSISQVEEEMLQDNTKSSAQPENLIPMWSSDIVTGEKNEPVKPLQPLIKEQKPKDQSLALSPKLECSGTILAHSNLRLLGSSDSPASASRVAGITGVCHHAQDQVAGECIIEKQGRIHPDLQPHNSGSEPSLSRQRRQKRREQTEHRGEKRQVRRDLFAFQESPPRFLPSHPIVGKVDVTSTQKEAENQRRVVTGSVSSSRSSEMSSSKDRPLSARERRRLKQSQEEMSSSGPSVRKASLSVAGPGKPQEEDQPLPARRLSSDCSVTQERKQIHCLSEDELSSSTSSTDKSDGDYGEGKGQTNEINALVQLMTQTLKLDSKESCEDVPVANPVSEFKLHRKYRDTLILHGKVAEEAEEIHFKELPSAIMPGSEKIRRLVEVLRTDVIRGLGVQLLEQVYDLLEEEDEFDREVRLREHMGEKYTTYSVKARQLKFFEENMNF
# Chain of MARK3 (human) (P27448 whole entry, looked up): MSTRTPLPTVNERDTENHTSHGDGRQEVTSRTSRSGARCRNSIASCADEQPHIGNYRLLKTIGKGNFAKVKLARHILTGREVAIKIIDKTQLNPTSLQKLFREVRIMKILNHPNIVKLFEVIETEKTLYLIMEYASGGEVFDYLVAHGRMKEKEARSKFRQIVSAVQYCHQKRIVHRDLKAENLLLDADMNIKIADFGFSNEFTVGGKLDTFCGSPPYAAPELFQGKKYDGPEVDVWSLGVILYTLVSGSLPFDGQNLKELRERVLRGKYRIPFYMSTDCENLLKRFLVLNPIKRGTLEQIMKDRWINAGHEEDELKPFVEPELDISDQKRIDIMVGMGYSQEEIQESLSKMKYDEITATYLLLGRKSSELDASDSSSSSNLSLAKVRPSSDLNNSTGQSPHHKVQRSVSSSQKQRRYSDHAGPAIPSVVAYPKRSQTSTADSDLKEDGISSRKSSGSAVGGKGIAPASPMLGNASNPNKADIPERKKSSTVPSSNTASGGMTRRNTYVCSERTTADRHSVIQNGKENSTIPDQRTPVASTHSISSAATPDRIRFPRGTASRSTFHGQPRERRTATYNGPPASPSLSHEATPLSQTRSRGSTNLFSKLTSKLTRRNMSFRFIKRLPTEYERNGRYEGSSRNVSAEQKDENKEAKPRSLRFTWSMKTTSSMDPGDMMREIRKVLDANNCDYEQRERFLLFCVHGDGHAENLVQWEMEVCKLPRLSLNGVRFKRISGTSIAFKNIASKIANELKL
# Chain of CHUK (human) (O15111 whole entry, looked up): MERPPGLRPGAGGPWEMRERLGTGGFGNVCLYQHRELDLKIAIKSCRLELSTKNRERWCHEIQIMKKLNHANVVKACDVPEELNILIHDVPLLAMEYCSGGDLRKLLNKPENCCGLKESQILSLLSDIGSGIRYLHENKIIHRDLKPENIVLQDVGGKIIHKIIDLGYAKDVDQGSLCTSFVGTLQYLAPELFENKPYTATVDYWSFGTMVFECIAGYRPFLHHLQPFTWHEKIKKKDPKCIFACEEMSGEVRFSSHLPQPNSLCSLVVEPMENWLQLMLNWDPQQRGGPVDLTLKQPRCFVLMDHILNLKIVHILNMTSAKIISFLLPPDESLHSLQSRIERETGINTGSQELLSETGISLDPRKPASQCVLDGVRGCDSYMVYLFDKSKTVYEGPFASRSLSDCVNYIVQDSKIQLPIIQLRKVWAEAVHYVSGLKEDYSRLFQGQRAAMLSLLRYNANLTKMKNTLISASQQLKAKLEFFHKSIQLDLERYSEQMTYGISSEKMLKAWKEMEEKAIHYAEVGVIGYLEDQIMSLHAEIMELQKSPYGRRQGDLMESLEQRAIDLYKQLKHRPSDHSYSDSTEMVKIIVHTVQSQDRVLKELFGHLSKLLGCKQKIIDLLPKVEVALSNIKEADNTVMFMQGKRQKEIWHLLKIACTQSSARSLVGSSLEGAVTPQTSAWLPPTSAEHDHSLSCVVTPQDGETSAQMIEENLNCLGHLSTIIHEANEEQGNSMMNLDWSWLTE
# Chain of TSSK1B (human) (Q9BXA7 whole entry, looked up): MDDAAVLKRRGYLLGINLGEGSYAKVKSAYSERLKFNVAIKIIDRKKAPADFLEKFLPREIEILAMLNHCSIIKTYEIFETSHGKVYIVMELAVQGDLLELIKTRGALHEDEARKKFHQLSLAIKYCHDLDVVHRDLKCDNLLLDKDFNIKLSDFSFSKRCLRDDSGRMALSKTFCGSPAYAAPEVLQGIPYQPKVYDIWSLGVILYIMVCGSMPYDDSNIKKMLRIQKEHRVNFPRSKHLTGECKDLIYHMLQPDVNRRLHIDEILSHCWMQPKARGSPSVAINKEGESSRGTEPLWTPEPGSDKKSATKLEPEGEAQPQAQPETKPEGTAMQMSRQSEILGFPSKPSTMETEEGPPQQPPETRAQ
compound,measurement,setting,value
Fc1ccc(-c2nc3n(c2-c2ccncc2)CCS3)cc1,residual activity,PHKG2 (human),104%
same,residual activity,AXL (human),95.8%
same,residual activity,TAOK3 (human),98.9%
same,residual activity,NTRK2 (human),103%
same,residual activity,AKT3 (human),109%
same,residual activity,CSNK1D (human),6.99%
same,residual activity,LIMK1 (human),89.3%
same,residual activity,NTRK3 (human),105%
same,residual activity,MARK2 (human),96.4%
same,residual activity,MAPK12 (human),104%
same,residual activity,MARK3 (human),88.9%
same,residual activity,TAOK2 (human),95.7%
same,residual activity,HCK (human),101%
same,residual activity,GSK3B (human),105%
same,residual activity,NEK4 (human),93.5%
same,residual activity,JAK2 JH1 JH2 (human),93.6%
same,residual activity,CSNK1G1 (human),86.6%
same,residual activity,MUSK (human),91.1%
same,residual activity,PRKG2 (human),93.9%
same,residual activity,STK33 (human),96.5%
same,residual activity,DYRK2 (human),101%
same,residual activity,MERTK (human),88.7%
same,residual activity,FYN (human),108%
same,residual activity,WNK3 (human),105%
same,residual activity,IRAK1 (human),125%
same,residual activity,DAPK1 (human),100%
same,residual activity,WEE1 (human),92.2%
same,residual activity,MAPKAPK3 (human),95.5%
same,residual activity,PTK2B (human),106%
same,residual activity,MAPK13 (human),111%
same,residual activity,CAMK4 (human),99.8%
same,residual activity,RPS6KA4 KD2 (human),88.8%
same,residual activity,ACVRL1 (human),97.9%
same,residual activity,DSTYK (human),105%
same,residual activity,CHUK (human),104%
same,residual activity,DYRK1A (human),97.5%
same,residual activity,DDR2 (human),94.9%
same,residual activity,OXSR1 (human),92.5%
same,residual activity,CSNK2A2 (human),105%
same,residual activity,TSSK1B (human),119%
same,residual activity,GRK6 (human),103%
same,residual activity,CDK9 CCNK (human),101%
COc1ccc(C(=O)Nc2sc3c(c2C(N)=O)CCCC3)cc1OC,residual activity,PHKG2 (human),106%
same,residual activity,AXL (human),84.4%
same,residual activity,TAOK3 (human),100%
same,residual activity,NTRK2 (human),67.4%
same,residual activity,AKT3 (human),102%
same,residual activity,CSNK1D (human),103%
same,residual activity,LIMK1 (human),93.2%
same,residual activity,NTRK3 (human),57.7%
same,residual activity,MARK2 (human),98.7%
same,residual activity,MAPK12 (human),96.5%
same,residual activity,MARK3 (human),94.1%
same,residual activity,TAOK2 (human),97%
same,residual activity,HCK (human),109%
same,residual activity,GSK3B (human),97.7%
same,residual activity,NEK4 (human),104%
same,residual activity,JAK2 JH1 JH2 (human),99.9%
same,residual activity,CSNK1G1 (human),90.1%
same,residual activity,MUSK (human),79.4%
same,residual activity,PRKG2 (human),104%
same,residual activity,STK33 (human),99.5%
same,residual activity,DYRK2 (human),92%
same,residual activity,MERTK (human),85.4%
same,residual activity,FYN (human),93.9%
same,residual activity,WNK3 (human),96.4%
same,residual activity,IRAK1 (human),79.8%
same,residual activity,DAPK1 (human),78.2%
same,residual activity,WEE1 (human),92.3%
same,residual activity,MAPKAPK3 (human),97.2%
same,residual activity,PTK2B (human),95.5%
same,residual activity,MAPK13 (human),109%
same,residual activity,CAMK4 (human),95.7%
same,residual activity,RPS6KA4 KD2 (human),102%
same,residual activity,ACVRL1 (human),110%
same,residual activity,DSTYK (human),92.2%
same,residual activity,CHUK (human),83.3%
same,residual activity,DYRK1A (human),97.4%
same,residual activity,DDR2 (human),102%
same,residual activity,OXSR1 (human),99.9%
same,residual activity,CSNK2A2 (human),104%
same,residual activity,TSSK1B (human),115%
same,residual activity,GRK6 (human),98.5%
same,residual activity,CDK9 CCNK (human),85.7%
O=C(c1cc2cc(O)ccc2[nH]1)c1cc2cc(O)ccc2[nH]1,residual activity,PHKG2 (human),105%
same,residual activity,AXL (human),90.1%
same,residual activity,TAOK3 (human),66.6%
same,residual activity,NTRK2 (human),37%
same,residual activity,AKT3 (human),102%
same,residual activity,CSNK1D (human),92.5%
same,residual activity,LIMK1 (human),87.9%
same,residual activity,NTRK3 (human),13.4%
same,residual activity,MARK2 (human),59.9%
same,residual activity,MAPK12 (human),97.9%
same,residual activity,MARK3 (human),84.4%
same,residual activity,TAOK2 (human),99%
same,residual activity,HCK (human),51.2%
same,residual activity,GSK3B (human),78.7%
same,residual activity,NEK4 (human),87.6%
same,residual activity,JAK2 JH1 JH2 (human),95.6%
same,residual activity,CSNK1G1 (human),93.1%
same,residual activity,MUSK (human),55.1%
same,residual activity,PRKG2 (human),80.6%
same,residual activity,STK33 (human),77.5%
same,residual activity,DYRK2 (human),89%
same,residual activity,MERTK (human),81.8%
same,residual activity,FYN (human),28.8%
same,residual activity,WNK3 (human),74.6%
same,residual activity,IRAK1 (human),98.1%
same,residual activity,DAPK1 (human),101%
same,residual activity,WEE1 (human),90.6%
same,residual activity,MAPKAPK3 (human),91.2%
same,residual activity,PTK2B (human),85.5%
same,residual activity,MAPK13 (human),108%
same,residual activity,CAMK4 (human),96.5%
same,residual activity,RPS6KA4 KD2 (human),81.3%
same,residual activity,ACVRL1 (human),98.4%
same,residual activity,DSTYK (human),95.5%
same,residual activity,CHUK (human),103%
same,residual activity,DYRK1A (human),103%
same,residual activity,DDR2 (human),95.7%
same,residual activity,OXSR1 (human),105%
same,residual activity,CSNK2A2 (human),78.8%
same,residual activity,TSSK1B (human),96.4%
same,residual activity,GRK6 (human),102%
same,residual activity,CDK9 CCNK (human),49.5%
COc1ccc2c(c1)c(C1=C(c3c[nH]c4ccccc34)C(=O)NC1=O)cn2CCCN(C)C,residual activity,PHKG2 (human),98.3%
same,residual activity,AXL (human),98.7%
same,residual activity,TAOK3 (human),78.2%
same,residual activity,NTRK2 (human),88.1%
same,residual activity,AKT3 (human),63.7%
same,residual activity,CSNK1D (human),92%
same,residual activity,LIMK1 (human),81.8%
same,residual activity,NTRK3 (human),54.9%
same,residual activity,MARK2 (human),91.8%
same,residual activity,MAPK12 (human),84.8%
same,residual activity,MARK3 (human),92.2%
same,residual activity,TAOK2 (human),80.8%
same,residual activity,HCK (human),111%
same,residual activity,GSK3B (human),32%
same,residual activity,NEK4 (human),90.7%
same,residual activity,JAK2 JH1 JH2 (human),97.5%
same,residual activity,CSNK1G1 (human),84.1%
same,residual activity,MUSK (human),53.5%
same,residual activity,PRKG2 (human),60.7%
same,residual activity,STK33 (human),56.2%
same,residual activity,DYRK2 (human),92.4%
same,residual activity,MERTK (human),84%
same,residual activity,FYN (human),110%
same,residual activity,WNK3 (human),92%
same,residual activity,IRAK1 (human),89%
same,residual activity,DAPK1 (human),105%
same,residual activity,WEE1 (human),85.1%
same,residual activity,MAPKAPK3 (human),92.3%
same,residual activity,PTK2B (human),104%
same,residual activity,MAPK13 (human),108%
same,residual activity,CAMK4 (human),90.3%
same,residual activity,RPS6KA4 KD2 (human),78.6%
same,residual activity,ACVRL1 (human),87.8%
same,residual activity,DSTYK (human),82.8%
same,residual activity,CHUK (human),96.5%
same,residual activity,DYRK1A (human),84.7%
same,residual activity,DDR2 (human),101%
same,residual activity,OXSR1 (human),97.7%
same,residual activity,CSNK2A2 (human),99.3%
same,residual activity,TSSK1B (human),80.3%
same,residual activity,GRK6 (human),96.2%
same,residual activity,CDK9 CCNK (human),54.6%
